Assay results as given in patent US20260191818A1 (University of South Carolina, priority 2022, published 2026).

Assays:
[1] = system: succinate dehydrogenase (SDH) activity; test: Myofiber metabolic phenotype, succinate dehydrogenase (SDH) staining of TA cryosections; format: in vivo, CD2F1 mice; conditions: C26+5FU+Quer vs C26+5FU
Procedure: To assess skeletal muscle myofiber metabolic phenotype succinate dehydrogenase (SDH) activity was measured. SDH is an enzyme bound to the inner mitochondrial membrane and SDH activity is higher in type 1 fibers. See, Zogby, A. M., et al., Skeletal muscle fiber-type specific succinate dehydrogenase activity in cerebral palsy. Muscle Nerve, 2017. 55(1): p. 122-124. TA tissue cryosections were taken out of the -80° C. and air dried on the laboratory bench and then incubated in an SDH staining solution containing 0.5 mg/ml nitroblue tetrazolium and (Sigma, Cat #: N5514) and 50 mM sodium succinate (Sigma, Cat #: S2378) in PBS for 30 min at 37° C. See, […]., et al., Eccentric contraction-induced myofiber growth in tumor-bearing mice. J Appl Physiol (1985), 2016. 120(1): p. 29-37. Slides were then washed in distilled water 3×1 min before mounting with warmed glycerol mounting media and cover slipped. Images of SDH stains were taken at 4×, 20×, and 40× using a Keyence BZX800 microscope. […] Images were inverted thus higher values corresponded with higher SDH activity.

C26 model of cachexia = conditions: Quercetin 35 mg/kg; cited from earlier work
PPARG, PPARGCA1 = test: RT-PCR of rectus femoris, mitochondrial biogenesis genes; format: in vivo, CD2F1 mice; conditions: C26+5FU+Quer vs C26+5FU
Procedure: RNA from the proximal portion of the RF was isolated as previously described. […] Briefly, RNA was extracted from the RF using the […] procedure (Life Technologies, Gibco-BRL, Carlsbad, CA). RNA sample quality and quantities were verified using a Nanodrop One Microvolume UV-Vis Spectrophotometer (Thermo Fisher Scientific, Waltham, MA). […] Quantitative RT-PCR analysis was carried out as per the manufacturer's instructions (Applied Biosystems) using Taq-Man Gene Expression Assays.

[2] = system: tibialis anterior (TA) muscle; test: Muscle histology (H&E), myofibrillar cross sectional area of tibialis anterior; format: in vivo, CD2F1 mice; conditions: C26+5FU+Quer vs C26+5FU
Procedure: Skeletal muscle histology was assessed via hematoxylin and eosin (H&E) staining on tibialis anterior (TA) muscle cryosections. The TA muscle was dissected, snap-frozen in liquid nitrogen with Optimum Cutting Temperature (OCT) embedding medium placed on the most distal portion of the TA and stored in −80° C. Tissue was acclimated to the cryostat temperature (−24° C.) prior to collection of transverse sections ([…]) on Fisherbrand Superfrost Plus Microscope Slides. TA tissue slides were then stored at −80° C. until staining. Slides were fixed in ice-cold acetone and H&E staining was completed as previously described. […] Cancer Biol Ther, 2022. 23(1); and VanderVeen, B. N., et al., 5-Fluorouracil disrupts skeletal muscle immune cells and impairs skeletal muscle repair and remodeling. J Appl Physiol (1985), 2022. 133(4): p. 834-849. Images of H&E stains were taken at 20× and 40× magnification using a Keyence BZX800 microscope. Muscle cross sectional area (mCSA) was measured using ImageJ by measuring the circumference of 500-700 myofibers/mouse (n=3-5/group).

[3] = system: soleus muscle mitochondria; test: Transmission electron microscopy of soleus muscle, mitochondrial number and size; format: in vivo, CD2F1 mice; conditions: C26+5FU+Quer vs C26+5FU
Procedure: Mitochondrial number and size were assessed in the soleus muscle using transmission electron microscopy (TEM). Skeletal muscle was prepared for TEM as previously described. See, VanderVeen, B. N., et al., 5-Fluorouracil disrupts skeletal muscle immune cells and impairs skeletal muscle repair and remodeling. J Appl Physiol (1985), 2022. 133(4): p. 834-849. The soleus was excised and initially fixed in 2.5% EM-grade glutaraldehyde followed by a secondary fixation in 1% osmium tetroxide and 1.5% K+ ferricyanide. After dehydration with increasing concentrations of ethanol, the samples were transferred to acetonitrile and embedded in Polybed 812. Ultrathin (~70 nm) sections were cut with a Leica Reichert Ultracut R ultramicrotome (Leica Microsystems GmbH, Wetzlar, Germany), collected on copper grids and stained with uranyl acetate and lead citrate. A JEOL 1400+ transmission electron microscope (JEOL USA, Peabody, MA) was used to view sections, and digital images were obtained with an Advanced Microscopy Techniques XR 81 Camera (Advanced Microscopy Techniques, Woburn, MA). Tissues were searched for intact and aligned sarcomeres by an investigator blinded to the experimental groups. […] Mitochondrial size was calculated by circling discernible mitochondria with ImageJ within the F.O.V. and averaged across the multiple images within a single mouse.

CD2F1 mice = conditions: mouse, in vivo; cited from earlier work
IL-6 = test: Plasma interleukin-6 ELISA; format: in vivo, CD2F1 mice; conditions: C26+5FU+Quer vs C26+5FU
Procedure: Blood was collected retro orbitally prior to euthanasia while the mice were anesthetized. Whole blood was collected and put in an EDTA-coated tubes and store on ice prior to centrifugation (3,000 g at 4° C. for 10 min) for plasma collection. A commercially available IL-6 (SEQ ID NO: 9) enzyme-linked immunosorbent assay (ELISA) kit was obtained from BioLegend (San Diego, CA, USA). Briefly, a Costar clear 96-well plate (Corning, NY, USA) was coated with IL-6 (SEQ ID NO: 9) capture antibody and allowed to incubate overnight. The plate was then blocked with assay diluent buffer, and IL-6 (SEQ ID NO: 9) standards and plasma samples were added to the plate. Wells were then washed and detection antibody was incubated in each well for 1 h. The wells were again washed and then incubated with avidin horseradish peroxidase reagent. After several washes, 3,3′,5,5′-tetramethylbenzidine substrate was added, and the reaction was developed for 20 min. The reaction was stopped with sulfuric acid, and absorbance was measured.

## O=c1c(O)c(-c2ccc(O)c(O)c2)oc2cc(O)cc(O)c12 [quercetin, 3,4,5,7-pentahydroxylflavone]
[1]
  CSA across glycolytic, mixed, and oxidative fibers according to SDH activity: increase
  mCSA and SDH across the spectrum of fibers analyzed: increased
C26 model of cachexia
  muscle mass loss: protected against muscle mass loss
PPARG, PPARGCA1; p=0.04
  change in gene expression of PPARG: −64.0%
PPARG, PPARGCA1; without changes, p=0.36
  change in PPARGCA1 gene expression: 10.3%
[2]
  myofibrillar fiber size distribution: rightward shift
[2]; H&E
  increase in TA mean CSA: 32.0%
[3]; soleus TEM per F.O.V., p=0.04
  greater number of mitochondria: 89.6%
[3]; soleus TEM, p>0.01 as printed
  greater mitochondrial size: 45.3%
CD2F1 mice
  sub-chronic toxicity: no deleterious effects or toxicities
IL-6
  plasma IL-6: did not appear that quercetin decreased
